According to patent US7291601B1, “Arginine-rich anti-vascular endothelial growth factor peptides that inhibit growth and metastasis of human tumor cells by blocking angiogenesis” (Korea Greencross Corp., priority 1999, dated 2007):

Key:
VEGF8-109 = molecular target: T1, VEGF8-109 (Homo sapiens, UniProt P15692); assay: Inhibition of labeled VEGF8-109 binding to its receptors; details: FIG. 9
T1 construct: made in house; host or cells: E. coli BL21(DE3)pLysS, inclusion bodies
T1 sequence (P15692 214-315): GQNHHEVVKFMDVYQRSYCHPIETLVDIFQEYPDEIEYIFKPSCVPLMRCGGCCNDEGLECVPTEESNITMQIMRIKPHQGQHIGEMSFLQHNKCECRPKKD
Description: (§1) In order to verify this postulation, Sequence 1 (RRKRRR) was examined for the common binding domain on VEGF because it inhibited the binding of VEGF to its receptors at the highest efficiency. First, appropriate primers were synthesized and used to amplify various cDNAs coding for VEGF165, VEGF121, VEFG8-121, VEGF109, and VEGF8-109 while a human liver cDNA library (Clontech) served as a template. After being inserted to plasmid pRSET A (Invitrogen), the cDNAs were sequenced. The resulting five pRSET A vectors, each having one of the five cDNAs, were introduced into an expression strain (BL21(DE3)pLysS) containing T7 RNA polymerase. […] The purified VEGFs were quantified by use of a protein assay reagent (Bio-Rad) and all found to bind to VEGF receptors and exert growth hormone activity on HUVEC. […] For use, each labeled protein was quantified by ELISA (enzyme-linked immunosorbent assay) using a mouse monoclonal anti-VEGF antibody (R&D systems).
(§2) Each peptide was examined for antagonistic activity against VEGF in the same manner as in Example 2. Referring to FIG. 9, the radioactivity measured from ^125I-labeled VEGF associated with fixed Sequence 1 (RRKRRR) (SEQ ID NO: 1) is plotted in the absence of competitors and in the presence of competitors for various VEGF isomers. […]

VEGF121 = molecular target: T2, VEGF121 (Homo sapiens, UniProt P15692); assay: Inhibition of labeled VEGF121 binding to its receptors; details: heparin-binding domain-deficient isoform, FIG. 9
T2 construct: made in house; host or cells: E. coli BL21(DE3)pLysS, inclusion bodies
T2 sequence (P15692 27-147 isoform P15692-9): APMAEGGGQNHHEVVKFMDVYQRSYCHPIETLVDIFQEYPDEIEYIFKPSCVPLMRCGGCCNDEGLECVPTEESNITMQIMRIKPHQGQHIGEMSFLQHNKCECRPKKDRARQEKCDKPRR
Description: as §1, §2

VEGF8-121 = molecular target: T3, VEGF8-121 (Homo sapiens, UniProt P15692); assay: Inhibition of labeled VEGF8-121 binding to its receptors; details: FIG. 9
T3 construct: made in house; host or cells: E. coli BL21(DE3)pLysS, inclusion bodies
T3 sequence (P15692 34-147 isoform P15692-9): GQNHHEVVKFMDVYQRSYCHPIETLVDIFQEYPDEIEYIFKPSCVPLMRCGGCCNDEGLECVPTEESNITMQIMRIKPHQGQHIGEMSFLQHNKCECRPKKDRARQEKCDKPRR
Description: as §1, §2

VEGF109 = molecular target: T4, VEGF109 (Homo sapiens, UniProt P15692); assay: Inhibition of labeled VEGF109 binding to its receptors; details: FIG. 9
T4 construct: made in house; host or cells: E. coli BL21(DE3)pLysS, inclusion bodies
T4 sequence (P15692 27-135 isoform P15692-4): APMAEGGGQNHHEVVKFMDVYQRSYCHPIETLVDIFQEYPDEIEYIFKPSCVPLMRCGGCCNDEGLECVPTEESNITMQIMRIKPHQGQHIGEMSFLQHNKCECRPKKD
Description: as §1, §2

H-RRKRRR-NH2 [compound 8, NH2-Arg-Arg-Lys-Arg-Arg-Arg-CONH2]
inhibition of binding of VEGF8-109 to its receptors (VEGF8-109): not inhibited
inhibition of binding of labeled VEGF121 to its receptors (VEGF121): inhibited
inhibition of binding of VEGF8-121 to its receptors (VEGF8-121): not inhibited
inhibition of binding of VEGF109 to its receptors (VEGF109): not inhibited
